Experiment in all cases: DTP human tumour cell line panel, 48 h
For assay [1], the system named is BT-549.
Assay [2] relates to PC-3.
The test system of assay [3] is TK-10.
For assay [4], the system named is SW-620.
For assay [5], the system named is MDA-MB-435.
The test system of assay [6] is Hs-578T.
Assay [7] deals with SF-539.
For assay [8], the system named is RPMI-8226.
Assay [9] concerns OVCAR-3.
For assay [10], the system named is MDA-N.
In assay [11] the test system is SR.
Assay [12] has as its system RXF 393.
Assay [13] concerns MDA-MB-231.
In assay [14] the test system is HT-29.
For assay [15], the system named is K562.
The test system of assay [16] is HOP-18.
Assay [17] has as its system DMS-114.
The subject of assay [18] is SNB-78.
In assay [19] the test system is DLD-1.
Assay [20] relates to M19-MEL.

We go through three compounds from ChEMBL document CHEMBL1201862, “PubChem BioAssay data set” (2004).

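96-well plates; 48 h exposure; 5 concentrations. Endpoints by linear interpolation between flanking doses. Not reached: highest tested concentration assigned. GI50: concentration for 50% inhibition of growth.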 Calls of active or inactive are those of the source. Cut-off read from the data, not from the text of the source: active = GI50 up to about 1.1 µM and inactive = higher.

For the compound `COc1ccc2cc1Oc1ccc(cc1)CC1c3c(cc(OC)c4c3Oc3cc5c(cc3O4)CCNC5C2)CCN1C` (centres undefined), the GI50 (usually the concentration that inhibits growth by half) in assay [1] is 2.77 µM (inactive); in [2], 1.88 µM (inactive); in assay [3] it was 1.86 µM (inactive); in assay [4], 1.77 µM (inactive); in assay [5] it was 1.8 µM (inactive); in assay [6], 2.19 µM (inactive). Besides, the GI50 in assay [7] is 1.7 µM (inactive); in assay [8], 1.63 µM (inactive); in assay [9] it was 2.69 µM (inactive); in [10], 1.83 µM (inactive); in assay [11], 0.698 µM (active).

Take `COc1cc(C2S/C(=C/c3ccccc3)C(=O)N2c2ccc(NC(C)=O)cc2)cc(OC)c1OC` (centres undefined): the GI50 in [1] was 16.3 µM (inactive); in [2] it was 11.8 µM (inactive); in assay [3] it was 37.2 µM (inactive); in assay [5], 18.2 µM (inactive); in assay [6], 21.2 µM (inactive); in assay [12] it was 17.5 µM (inactive). Also, the GI50 is 14.2 µM (inactive) in [13]; 13.2 µM (inactive) in assay [14]; 19.3 µM (inactive) in [10]; 18.9 µM (inactive) in assay [11]; 16 µM (inactive) in assay [15].

`S=P1(Sc2ccccc2)Oc2ccc3ccccc3c2-c2c(ccc3ccccc23)O1`: the GI50 is > 92.5 µM (inactive) in [16]; > 58.6 µM (inactive) in [17]; > 100 µM (inactive) in assay [4]; > 100 µM (inactive) in assay [18]; > 100 µM (inactive) in assay [7]; > 83 µM (inactive) in assay [12]. Besides, the GI50 in assay [19] was > 100 µM (inactive); in [8] it was > 100 µM (inactive); in [9], 70 µM (inactive); in assay [14] it was 51.5 µM (inactive); in assay [20] it was > 100 µM (inactive); in assay [15], 80.7 µM (inactive).
